Measurements as given in patent publication US20250140406A1, “CLASSIFYING TUMORS AND PREDICTING RESPONSIVENESS” (Oncocyte Corporation, priority 2022, published 2025).
Like-named read-outs stand apart in the source and are kept apart here. Square brackets hold non-standard residues; d marks the D form. Peptide text beside a SMILES is read from it. dPhe(4-Cl) = N[C@H](Cc1ccc(Cl)cc1)C(=O)O; d2Nal = N[C@H](Cc1ccc2ccccc2c1)C(=O)O; dCit = NC(=O)NCCC[C@@H](N)C(=O)O; d3Pal = N[C@H](Cc1cccnc1)C(=O)O

Legend:
[1] = tested on: cancer cell lines classified IM, MSL, M; test: PRISM screen compound sensitivity correlated with IM, MSL and M subtype of cell lines (101 gene signature); format: cell-based; settings: for TNBCType train: training cell set (371 cell lines), 101 gene signature
[2] = tested on: cancer cell lines, DetermaIO classes; test: Association of PRISM compound sensitivity with DetermaIO (DTIO) cell line classes; format: cell-based
[3] = correlation of PRISM compound sensitivity with IM subtype correlation, test cell set (188 cell lines)
[4] = correlation of PRISM compound sensitivity with M subtype correlation, test cell set (188 cell lines)
[5] = correlation of PRISM compound sensitivity with MSL subtype correlation, test cell set (188 cell lines)
[6] = correlation of PRISM compound sensitivity with DTIO (DetermaIO), test cell set (188 cell lines)
[7] = correlation of PRISM compound sensitivity with DTIO (DetermaIO), training cell set (371 cell lines)
[8] = correlation of PRISM compound sensitivity with DTIO, test cell set
[9] = correlation of PRISM compound sensitivity with DTIO, training cell set
[10] = subtype (IM, MSL or M) with which compound sensitivity is negatively correlated
[11] = subtype (IM, MSL or M) assigned to the compound by negative correlation of PRISM sensitivity with subtype

SMILES | IM Corr test [1, 3] | M Corr test [1, 4] | MSL Corr test [1, 5] | DTIO Corr test [2, 6] | DTIO Corr train [2, 7] | DTIO Corr test [2, 8] | DTIO Corr train [2, 9] | further results
C[C@@H](N)c1ccc(C(=O)Nc2ccnc3[nH]ccc23)cc1 [Y-39983] | 0.05616 | −0.1022 | −0.1761 | −0.02374 | −0.00611 |  |  | 
Cc1cccc(NC(=O)N[C@@H]2N=C(c3ccccc3)c3ccccc3N(CC(=O)c3ccccc3C)C2=O)c1 [YM022] | −0.00497 | −0.05702 | −0.08788 |  |  | −0.00858 | 0.03884 | 
C[C@@H]1CN(Cc2ccc(F)cc2)CCN1C(=O)COc1ccc(Cl)cc1NC(N)=O.Cl [ZK811752] | 0.1095 | −0.08132 | −0.00448 | 0.04281 | 0.09953 |  |  | 
CC1(C)[C@@H](O[C@H]2O[C@H](C(=O)O)[C@@H](O)[C@H](O)[C@H]2O[C@@H]2O[C@H](C(=O)O)[C@@H](O)[C@H](O)[C@H]2O)CC[C@]2(C)[C@H]3C(=O)C=C4[C@@H]5C[C@@](C)(C(=O)O)CC[C@]5(C)CC[C@@]4(C)[C@]3(C)CC[C@@H]12 [ammonium-glycyrrhizinate] | −0.02605 | 0.0501 | 0.0971 |  |  | −0.07896 | −0.06692 | 
CC(=O)OC[C@]12CCC(C)=C[C@H]1O[C@@H]1[C@H](O)[C@@H](OC(C)=O)[C@@]2(C)[C@]12CO2 [anguidine] |  |  |  |  |  |  |  | IM Corr test [1]: −0.1066; M Corr test [1]: 0.09713; MSL Corr test [1]: 0.2083; DTIO Corr test [2]: −0.124; DTIO Corr train [2]: −0.1638
O=C1C(=O)N(Cc2ccc(Cl)c(Cl)c2)c2ccccc21 [apoptosis-activator-II] | 0.1037 | −0.1455 | −0.1886 |  |  | 0.07557 | 0.02708 | TNBCType train [1, 10]: MSL
COc1ccc(C2CNC(=O)NC2)cc1O[C@H]1C[C@@H]2CC[C@H]1C2 [atizoram] | −0.0276 | 0.01206 | −0.09365 | 0.000749 | −0.04268 |  |  | TNBCType train [1, 11]: MSL
Cc1occc(=O)c1[O-].Cc1occc(=O)c1[O-].[O]=[V+2] [bis(maltolato)oxo-vanadium(IV)] | 0.04745 | −0.1743 | −0.04621 |  |  | 0.09031 | 0.1485 | DTIO Corr test ([2]; correlation of compound sensitivity with DetermaIO (DTIO), test set): 0.09031; DTIO Corr train ([2]; correlation of compound sensitivity with DetermaIO (DTIO), training set): 0.1485
CCCC[C@H](NC(C)=O)C(=O)N[C@H]1CC(=O)NCCCC[C@@H](C(=O)O)NC(=O)[C@H](Cc2c[nH]c3ccccc23)NC(=O)[C@H](CCCN=C(N)N)NC(=O)[C@@H](Cc2ccccc2)NC(=O)[C@H](Cc2cnc[nH]2)NC1=O [bremelanotide] | −0.04735 | 0.07264 | −0.04913 |  |  | −0.06366 | −0.07952 | 
CCCCC1OC(=O)c2ccccc21 (stereo not drawn) [butylphthalide] | −0.03693 | −0.03289 | −0.02003 |  |  | −0.1082 | 0.01178 | TNBCType train [1, 10]: MSL
COc1ccc(Nc2nccc(NCCO)n2)cc1 [cardiogenol-c] | −0.05174 | −0.01984 | −0.00925 |  |  |  |  | TNBCType train ([1]; subtype (IM, MSL or M) the PRISM compound sensitivity is associated with): MSL; DTIO Corr test ([2]; correlation of PRISM compound sensitivity with DTIO, test cell set (188 cell lines)): −0.07629; DTIO Corr train ([2]; correlation of PRISM compound sensitivity with DTIO, training cell set (371 cell lines)): 0.01043
CO/N=C(\C(=O)N[C@@H]1C(=O)N2C(C(=O)OCOC(=O)C(C)(C)C)=C(C)CS[C@H]12)c1csc(N)n1 [cefetamet-pivoxil] |  |  |  |  |  | −0.06679 | −0.1217 | IM Corr test ([1]; correlation of PRISM compound sensitivity with IM subtype correlation, test cell set): −0.01246; M Corr test ([1]; correlation of PRISM compound sensitivity with M subtype correlation, test cell set): 0.001642; MSL Corr test ([1]; correlation of PRISM compound sensitivity with MSL subtype correlation, test cell set): −0.041
CC(=O)N[C@H](Cc1ccc2ccccc2c1)C(=O)N[C@H](Cc1ccc(Cl)cc1)C(=O)N[C@H](Cc1cccnc1)C(=O)N[C@@H](CO)C(=O)N[C@@H](Cc1ccc(O)cc1)C(=O)N[C@H](CCCNC(N)=O)C(=O)N[C@@H](CC(C)C)C(=O)N[C@@H](CCCNC(=N)N)C(=O)N1CCC[C@H]1C(=O)N[C@H](C)C(N)=O [cetrorelix] (Ac-[d2Nal][dPhe(4-Cl)][d3Pal]SY[dCit]LRP[dA]-NH2) | −0.1828 | −0.05533 | −0.07051 | −0.1344 | 0.03723 |  |  | TNBCType train [1, 11]: MSL
